Laboratory results as given in patent publication US8748419B2, “Treating obesity with muscarinic receptor M1 antagonists” (priority 2006, dated 2014).

Experiments:
[1] = local microinjection; cited from earlier work
[2] = Appetite suppression: high fat food consumption in fasted rats (4-Hour and 24-Hour Consumption); assay type: in vivo, Sprague-Dawley rats; details: for reduction in effective dose of sibutramine: 30 mg/kg of telenzepine co-administered, effective dose lowered to 1 mg/kg
Excerpt: Appetite Suppression: Three-month-old (300-350 grams) male, Sprague-Dawley rats (individually housed) were used to assess compounds for their appetite suppressant effects. Rats were acclimatized to a “high fat” food diet (BioServ Diet #F3282 or Research Diets #12451) for two weeks prior to testing (access to food and water ad libitum). One day prior to the experiment (at 5:00 PM), food was removed from the cages in order to motivate feeding when the food was returned the following morning (water remained available throughout the experiment). Prior to presentation of the food, rats (n=8-10/dose group) were dosed intraperitoneally (ip) or orally (po) with the compound under investigation, returned to their home cage and immediately given a pre-weighed amount of food. Four hours after administration, the food was removed from the cage, weighed, recorded (4-Hour Consumption) and returned to the rat until the following morning. Twenty-four hours after administration, the remaining food was again weighed and recorded (24-Hour Consumption). Cumulative consumption (expressed in grams) was calculated for both the four and the twenty-four hour intervals. In this assay, vehicle-treated rats typically consume approximately 8 grams over the four-hour interval and approximately 25 grams over the twenty-four-hour interval.
Treatment effects are presented in Table 1 and FIGS. 1-5 (4-Hour Consumption) and Table 2 and FIGS. 6-10 (24-Hour Consumption). The effects are given as both Raw Consumption (in grams ±SEM [1 standard error of the mean]) and as % Reduction in 4-Hour or 24-Hour Consumption=[1-(Consumption following Drug Treatment/Consumption following Vehicle Treatment)]×100%. Similar superscripts in the Dose column of Tables 1 and 2 denote values derived from the same experiment (to facilitate comparisons between individual treatments and co-administrations). Statistical analyses were performed using a 1-way ANOVA (analysis of variance) followed by a Bonferroni multiple comparison test with the overall alpha set at 0.05. In Tables 1 and 2, asterisks (*) denote significant effects compared to vehicle-treated rats, while letters (a or b) denote significant effects compared to rats treated with a single compound (“a” for significance from antidepressant and “b” for significance from telenzepine). In Tables 1 and 2, one symbol denotes p<0.05, two symbols denote p<0.01 and three symbols denote p<0.001). The symbols used for denoting statistical significance may be different in the corresponding figures.

[3] = Reduction in weight gain of rats on a high fat diet (two-week treatment); assay type: in vivo, Sprague-Dawley rats; details: for % Reduction: treatment minus vehicle % weight gain
Procedure: Reduction in Weight Gain: Three- to four-month-old (475-550 grams) male, Sprague-Dawley rats (individually housed) were used to assess compounds for their ability to prevent weight gain. At the onset of chronic experiments, rats had been maintained (ad libitum access) on a “high fat” diet (BioServ Diet #F3282 or Research Diets #12451) for approximately one month. Individual body weights and water consumptions were recorded three times per week throughout the duration of the experiment. After approximately two weeks of data collection, rats were counter-balanced to produce treatment groups with equivalent mean body weights. Under isofluorane-induced anesthesia, rats were surgically implanted (subscapular, subcutaneous [sc] placement) with osmotic mini-pumps (Alzet 2mL2) containing the appropriate drug concentration (based on mean body weights and calculated durations of delivery). Alternatively, for studies using the oral route of administration, rats were dosed by gavage daily over 14 days at a volume of 3 mL/kg. Data collection was continued under drug treatment for approximately two more weeks. Change in body weight (expressed in grams) was calculated for the treatment interval. In this assay, vehicle-treated rats typically gain approximately 35-40 grams (+9%) over the two-week interval. Treatment effects are presented in Table 3 as % Weight Gain=[(Body Weight at End of Drug Infusion−Baseline Body Weight)/Baseline Body Weight]×100%, for both Vehicle and Treatment groups; as well as % Reduction=(% Weight Gain for Treatment group−% Weight Gain for Vehicle group). Body weights throughout the treatment period are presented in FIGS. 11-15 as the percentage of baseline body weight. Similar superscripts in the Dose column of Table 3 denote values derived from the same experiment (to facilitate comparisons between individual treatments and co-administrations). Statistical analyses were performed using a 1-way ANOVA (analysis of variance) followed by a Bonferroni multiple comparison test with the overall alpha set at 0.05. In Table 3, asterisks (*) denote significant effects compared to vehicle-treated rats, while letters (a or b) denote significant effects compared to rats treated with a single compound (“a” for significance from antidepressant and “b” for significance from telenzepine). In Table 3, one symbol denotes p<0.05, two symbols denote p<0.01 and three symbols denote p<0.001). The symbols used for denoting statistical significance may be different in the corresponding figures.

[4] = 24 h, 10 mg/kg po, experiment d

CN1CCN(CC(=O)N2c3ccccc3C(=O)Nc3cccnc32)CC1 [pirenzepine, 5,11-Dihydro-11-[(4-methyl-1-piperazinyl)acetyl]-6H-pyrido[2,3-b][1,4]benzodiazepin-6-one]
dopamine efflux in the striatum [1]: decreased dopamine efflux

CN(C)CCCC1(c2ccc(F)cc2)OCc2cc(C#N)ccc21 (stereo not drawn) [Citalopram, citalopram]
Treatment Consumption ([2]; 4 h, 25 mg/kg ip, experiment a): 5.3 ± 0.72 g/4 Hrs
% Reduction in Consumption ([2]; 4 h, 25 mg/kg ip, experiment a, 25 mg/kg): 31%
% Reduction in Consumption ([2]; 4 h, 25 mg/kg ip, experiment a, listed as citalopram, 25 mg/kg): 31%
Treatment Consumption ([2]; 24 h, 25 mg/kg ip, experiment a): 23.0 ± 0.71 g/24 Hrs
% Reduction in Consumption ([2]; 24 h, 25 mg/kg ip, experiment a, 25 mg/kg): 4%
% Reduction in Consumption ([2]; 24 h, 25 mg/kg ip, experiment a, listed as citalopram, 25 mg/kg): 4%
Treatment: % Weight Gain ([3]; 15 mg/kg sc, experiment a): 6.2 ± 1.0%
% Reduction ([3]; 15 mg/kg sc, experiment a): −2.4%

CN[C@H]1CC[C@@H](c2ccc(Cl)c(Cl)c2)c2ccccc21 [Sertraline, sertraline]
Treatment Consumption ([2]; 4 h, 10 mg/kg ip, experiment a): 6.0 ± 0.88 g/4 Hrs
% Reduction in Consumption ([2]; 4 h, 10 mg/kg ip, experiment a, 10 mg/kg): 21%
% Reduction in Consumption ([2]; 4 h, 10 mg/kg ip, experiment a, listed as sertraline, 10 mg/kg): 21%
Treatment Consumption ([2]; 4 h, 30 mg/kg ip, experiment a): 5.6 ± 0.73 g/4 Hrs
% Reduction in Consumption ([2]; 4 h, 30 mg/kg ip, experiment a, 30 mg/kg): 27%
% Reduction in Consumption ([2]; 4 h, 30 mg/kg ip, experiment a, listed as sertraline, 30 mg/kg): 27%
Treatment Consumption ([2]; 24 h, 10 mg/kg ip, experiment a): 23.5 ± 0.71 g/24 Hrs
% Reduction in Consumption ([2]; 24 h, 10 mg/kg ip, experiment a, 10 mg/kg): 2%
% Reduction in Consumption ([2]; 24 h, 10 mg/kg ip, experiment a, listed as sertraline, 10 mg/kg): 2%
Treatment Consumption ([2]; 24 h, 30 mg/kg ip, experiment a): 17.1 ± 1.60 g/24 Hrs
% Reduction in Consumption ([2]; 24 h, 30 mg/kg ip, experiment a, 30 mg/kg): 28%
% Reduction in Consumption ([2]; 24 h, 30 mg/kg ip, experiment a, listed as sertraline, 30 mg/kg): 28%
Treatment: % Weight Gain ([3]; 5 mg/kg sc): 7.2 ± 1.2%
% Reduction ([3]; 5 mg/kg sc): −2.1%
Treatment: % Weight Gain ([3]; 10 mg/kg sc): 6.0 ± 0.8%
% Reduction ([3]; 10 mg/kg sc): −3.1%
reduction in body weight compared to vehicle treated rats ([3]; 15 mg/kg of sertraline alone): 6.8%
Treatment: % Weight Gain ([3]; 15 mg/kg sc, experiment b): 2.8 ± 0.8%
% Reduction ([3]; 15 mg/kg sc, experiment b): −6.8%
Treatment: % Weight Gain ([3]; 20 mg/kg sc): 2.8 ± 0.7%
% Reduction ([3]; 20 mg/kg sc): −3.5%

CC(C)CC(N(C)C)C1(c2ccc(Cl)cc2)CCC1 (stereo not drawn) [Sibutramine, sibutramine]
% Reduction in Consumption ([2]; 4 h, 1 mg/kg po, experiment c): 0%
Treatment Consumption ([2]; 4 h, 1 mg/kg po, experiment c): 10.1 ± 1.24 g/4 Hrs
% Reduction in Consumption ([2]; 4 h, 1 mg/kg po, experiment d): 28%
Treatment Consumption ([2]; 4 h, 1 mg/kg po, experiment d): 4.9 ± 0.68 g/4 Hrs
% Reduction in Consumption ([2]; 4 h, 3 mg/kg po, experiment c): 23%
Treatment Consumption ([2]; 4 h, 3 mg/kg po, experiment c): 8.0 ± 1.29 g/4 Hrs
% Reduction in Consumption ([2]; 4 h, 3 mg/kg po, experiment d): 54%
Treatment Consumption ([2]; 4 h, 3 mg/kg po, experiment d): 3.2 ± 0.33 g/4 Hrs
% Reduction in Consumption ([2]; 4 h, 10 mg/kg po, experiment d): 38%
Treatment Consumption ([2]; 4 h, 10 mg/kg po, experiment d): 4.3 ± 0.61 g/4 Hrs
reduction in effective dose of sibutramine ([2]; 4 hour consumption): 3 fold
% Reduction in Consumption ([2]; 24 h, 1 mg/kg po, experiment c): 10%
Treatment Consumption ([2]; 24 h, 1 mg/kg po, experiment c): 27.4 ± 1.78 g/24 Hrs
% Reduction in Consumption ([2]; 24 h, 1 mg/kg po, experiment d): 16%
Treatment Consumption ([2]; 24 h, 1 mg/kg po, experiment d): 20.7 ± 1.05 g/24 Hrs
% Reduction in Consumption ([2]; 24 h, 3 mg/kg po, experiment c): 28%
Treatment Consumption ([2]; 24 h, 3 mg/kg po, experiment c): 21.9 ± 1.98 g/24 Hrs
% Reduction in Consumption ([2]; 24 h, 3 mg/kg po, experiment d): 38%
Treatment Consumption ([2]; 24 h, 3 mg/kg po, experiment d): 15.4 ± 1.22 g/24 Hrs
% Reduction in Consumption [2, 4]: 52%
Treatment Consumption [2, 4]: 11.9 ± 1.15 g/24 Hrs
reduction in effective dose of sibutramine ([2]; 24 hour consumption): 10 fold
effect on consumption ([2]; given alone, oral administration required for a significant reduction): effective
Treatment: % Weight Gain ([3]; 0.3 mg/kg po, experiment d): 4.7 ± 0.5%
% Reduction ([3]; 0.3 mg/kg po, experiment d): −1.7%
Treatment: % Weight Gain ([3]; 3 mg/kg po): −5.7 ± 1.2%
% Reduction ([3]; 3 mg/kg po): −6.0%
reduction of weight gain against vehicle treated controls (reduction from baseline) ([3]; given alone): 6%

CC(C)(N)Cc1ccccc1 [Phentermine, phentermine]
Treatment: % Weight Gain ([3]; 4 mg/kg sc, experiment c): 4.2 ± 0.6%
% Reduction ([3]; 4 mg/kg sc, experiment c): −1.1%

COc1ccc(C(CN(C)C)C2(O)CCCCC2)cc1 (stereo not drawn) [Venlafaxine, venlafaxine]
Treatment Consumption ([2]; 4 h, 30 mg/kg ip, experiment b): 6.1 ± 0.84 g/4 Hrs
% Reduction in Consumption ([2]; 4 h, 30 mg/kg ip, experiment b, 30 mg/kg): 13%
% Reduction in Consumption ([2]; 4 h, 30 mg/kg ip, experiment b, listed as venlafaxine, 30 mg/kg): 13%
Treatment Consumption ([2]; 24 h, 30 mg/kg ip, experiment b): 24.9 ± 1.52 g/24 Hrs
% Reduction in Consumption ([2]; 24 h, 30 mg/kg ip, experiment b, 30 mg/kg): 0%
% Reduction in Consumption ([2]; 24 h, 30 mg/kg ip, experiment b, listed as venlafaxine, 30 mg/kg): 0%
reduction in body weight compared to vehicle treated rats ([3]; 30 mg/kg of venlafaxine alone): 0.7%
Treatment: % Weight Gain ([3]; 30 mg/kg sc, experiment b): 7.4 ± 0.5%
% Reduction ([3]; 30 mg/kg sc, experiment b): −0.7%
